Assay results from US11198710B2, “Transgenic plant having herbicide resistance” (priority 2016, dated 2021).

What was measured:
[1] = tested on: transgenic rapeseed plants comprising the TaQ8GTC0 gene; test: Rapeseed sensitivity test 2 (agar medium), transgenic; assay type: in vivo, Brassica napus; conditions: 10 μM pyroxasulfone, 22° C., 2 weeks
Description: In order to investigate the extent of pyroxasulfone resistance of the transgenic rapeseed plants comprising the […] gene introduced therein compared to wild-type plants, the growth of rapeseed was examined in an agar medium containing pyroxasulfone. Wild-type rapeseed plants (variety: Westar) and transgenic rapeseed plants comprising the TaQ8GTC0 gene introduced therein were subjected to the growth inhibitory test in an agar medium, so as to examine the resistance thereof to pyroxasulfone.
The medium (1 liter) used in the test was composed of 1× Murashige-Skoog (MS) media (a bag), thiamin hydrochloride (3 μg/ml), nicotinic acid (5 μg/ml), pyridoxin hydrochloride (0.5 μg/ml), and 1% (w/v) sucrose. The composition was added to a 1-liter beaker, a pH was adjusted to 5.7, and the volume of the composition was adjusted to 1 liter, followed by the addition of 8 g (0.8%) of agar. Thereafter, the composition was autoclaved, the temperature was cooled to room temperature, and pyroxasulfone (acetone solution) at a given concentration was added. […]
The sensitivity of rapeseed was examined in agar media comprising pyroxasulfone (0.1 μM, 1 μM, 10 μM, and 100 μM). […] Values in the table in FIGS. 41 and 42 are expressed as the mean±standard deviation (n=4 to 5). Values in FIG. 43 are expressed as the means (n=4 to 5).

TaQ8GTC0 protein = test: Glutathione conjugation activity of the TaQ8GTC0 protein to VLCFAE-inhibiting herbicides (HPLC); assay type: biochemical, wheat (Triticum aestivum)
Protocol: All the VLCFAE-inhibiting herbicides used in this example were added to the reaction mixture as acetone solutions. Conjugation reactions to the VLCFAE-inhibiting herbicides were performed in a reaction mixture (total amount: 200 μl) containing 50 μl of 100 mM potassium phosphate buffer (pH 6.8), 10 μl of 1 mM VLCFAE-inhibiting herbicide, 20 μl of 10 mM reduced glutathione (pH 7.0), 6 μl of the TaQ8GTC0 protein (378 ng in total, PBS buffer solution) and 114 μl of PBS buffer, the reaction was conducted at 30° C. for 15 minutes, the reaction product was filtered through a […], and 50 μl of the filtered solution was injected into HPLC. HPLC analysis conditions were as described below.
Apparatus: Agilent 1100 series
Column: CAPCELL PAK C18 AQ 4.6 mm (i.d.)×250 mm (SHISEIDO)
Mobile phase: acetonitrile/distilled water=5/95 (hold for 5 min)→(4 min)→40/60 (hold for 4 min)→(4 min)→90/10 (hold for 8 min)→(1 min)→5/95 (hold for 4 min) (each solvent containing 0.5% acetic acid)
When the activity of glutathione conjugation to VLCFAE-inhibiting herbicides was analyzed, the amount of glutathione conjugates (GS conjugates) produced was determined based on the amount of VLCFAE-inhibiting herbicides decreased in the reaction solution.
In Example 1, the conjugation activity to cafenstrole was determined via quantification of the compound released by the glutathione conjugation of this herbicide. In addition, peaks of GS conjugate of other herbicides (i.e., metolachlor, alachlor, flufenacet, mefenacet, phentolazamide, indanofan, anilofos, and piperophos) were unknown. When analyzing the glutathione conjugation activities to these herbicides, accordingly, glutathione conjugation reactions were performed to produce GS conjugate in the modified conditions (i.e., more amount of enzyme was added or the conjugation reaction was conducted for longer time) in the beginning to produce glutathione conjugates (GS conjugates), and the peaks were identified with LC/MS.

ZmQ9FQD1 = test: Pyroxasulfone metabolizing activity based on the growth of cultured rice cells in medium; assay type: cell-based, maize; conditions: cultured rice cells with ZmQ9FQD1 gene; N6D medium, 100 μM (10^−4M) pyroxasulfone, 2 weeks
Protocol: (§1) The 2 lineages of cultured rice cells comprising the maize GST genes introduced thus prepared and the KLB-279 cultured transgenic rice cells (the control cells) were seeded on N6D medium, and pyroxasulfone resistance was inspected based on the growth of cultured rice cells 2 weeks later. Pyroxasulfone was subjected to the test as an acetone solution, the final acetone concentration to be added to the medium was 1%, and the final drug concentration was 10^−4 M.

ZmB8A3K0 = test: as above; assay type: cell-based, maize; conditions: cultured rice cells with ZmB8A3K0 gene; N6D medium, 100 μM (10^−4M) pyroxasulfone, 2 weeks
Protocol: as §1

wild-type rice = test: Pyroxasulfone resistance test, wild-type rice, gellan gum medium, plant height; assay type: in vivo; conditions: Oryza sativa, shoot growth, 4 to 5 days, Probit method, read-out: I50
Protocol: Hoagland's mix and 3 g of gellan gum were suspended in 1 liter of distilled water and thoroughly dissolved therein by heating in a microwave. A fraction of the resultant (15 ml) was injected into a tubular bottle before it was cooled (30 ml was injected into the plate). The herbicide was simultaneously added at the time of injection of the gellan gum medium into the tubular bottle or plate, followed by thorough mixing. Rice hulls were soaked in a 50-fold diluted sodium hypochlorite solution (antiformin) (Wako) for approximately 20 minutes and then thoroughly washed with water. Sterilized seeds were soaked in distilled water and allowed to stand at 27° C. for germination (for approximately 2 days). Germinating seeds were softly planted in the gellan gum medium (plate) containing 0.25 μM BS. […] Thereafter, rice seeds that were determined to have BS resistance with the use of root elongation as the indicator were transferred to gellan gum media containing pyroxasulfone (tubal bottles) at the final concentrations of 10^−8, 10^−7, 10^−6, and 10^−5M, respectively. […] These samples were grown at 27° C. under fluorescent light illumination (14 hours of a light period and 10 hours of a dark period) for 4 to 5 days, and the plant heights were then measured. […]

## Cn1nc(C(F)(F)F)c(CS(=O)(=O)C2=NOC(C)(C)C2)c1OC(F)F [Pyroxasulfone, 3-[5-(difluoromethoxy)-1-methyl-3-(trifluoromethyl)pyrazol-4-ylmethylsulfonyl]-4,5-dihydro-5,5-dimethyl-1,2-oxazole]
[1]
  inhibition ratio on foliage leaf development: 1.2±2.7%
  inhibition ratio on plant height: 7.8±5.9%
TaQ8GTC0 protein; 378 ng TaQ8GTC0 protein, 10 μl of 1 mM herbicide in 200 μl, 30° C., 15 minutes, mean ± standard deviation
  Enzyme activity (glutathione conjugation): 11.7 ± 3.7 μmol/mg protein/15 min
TaQ8GTC0 protein; out of 10 nmol pyroxasulfone added to the reaction mixture
  GS conjugate of pyroxasulfone (M-15) produced: 4.81 nmol
ZmQ9FQD1
  pyroxasulfone metabolizing activity (growth of cultured rice cells): no pyroxasulfone metabolizing activity
ZmB8A3K0
  pyroxasulfone metabolizing activity (growth of cultured rice cells): no pyroxasulfone metabolizing activity
wild-type rice
  IC50: 39 nM
